# Data as given in patent publication US8987195B2 (priority 2012, dated 2015).
# Read-outs that look alike come from different tables or passages of the source.
# Key:
# [1] = target: HCV NS3/4A protease genotype 1b (Hepatitis C virus genotype 1b, UniProt P26663); assay: HCV NS3/4A protease time-resolved fluorescence (TRF) assay, Ki against genotype 1b; assay type: biochemical
# Outline: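 Ki was converted from fitted IC50 using IC50=Ki(1+[S]/KM) and 25 nM substrate. Protease (genotype 1b 0.2 nM, A156T 0.4 nM, 3a 0.025 nM) and compound were pre-mixed 30 min in pH 7.5 HEPES/NaCl/glycerol/DTT buffer. Cleavage then proceeded 2.5 h at room temperature, detected by time-resolved europium fluorescence (340/615 nm).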
# [2] = system: HCV genotype 1b replicon; assay: HCV replicon assay, genotype 1b replicon EC50; assay type: cell-based, Hepatitis C virus; details: Hepatitis C virus, read-out: EC50 [gt-1b]
# Outline: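 Cells harbouring a stable replicon are grown under G418 selection, then plated with test compound in G418-free medium for 24-48 hours. After washing and lysis, RNA or luciferase signal is measured and expressed as percent of DMSO control to give EC50.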
# [3] = IC50 [gt-1b] (nM), NS3/4A genotype 1b, enzyme 0.2 nM, K+ salt
# [4] = IC50 [gt-1b], NS3/4A protease TRF assay, genotype 1b enzyme 0.2 nM
# [5] = IC50 [gt-1b] (nM), NS3/4A genotype 1b, enzyme 0.2 nM
compound,measurement,setting,value
"COc1ccc2nc(C)c3c(c2c1)[C@H](F)C[C@]1(C[C@H]2C(=O)N[C@]4(C(=O)NS(=O)(=O)C5(C)CC5)C[C@H]4/C=C\CCCCC[C@H](NC(=O)OC(C)(C)C(F)(F)F)C(=O)N2C1)O3 [Example 355, 1,1,1-trifluoro-2-methylpropan-2-yl [(1′R,2S,6S,12Z,13aS,14aR,16aS)-1′-fluoro-9′-methoxy-5′-methyl-14a-{[(1-methylcyclopropyl)sulfonyl]carbamoyl}-5,16-dioxo-1,1′,2′,5,6,7,8,9,10,11,13a,14,14a,15,16,16a-hexadecahydrospiro[cyclopropa[e]pyrrolo[1,2-a][1,4]diazacyclopentadecine-2,3′-pyrano[2,3-c]quinolin]-6-yl]carbamate]",IC50,[1]; [3],0.02 nM
same,EC50,"[2]; genotype 1b replicon, K+ salt",3.77 nM
"COc1ccc2nc(C(F)F)c3c(c2n1)CC[C@]1(C[C@H]2C(=O)N[C@]4(C(=O)NS(=O)(=O)C5(C)CC5)C[C@H]4/C=C\CCCCC[C@H](NC(=O)OCC(C)(C)C)C(=O)N2C1)O3 [Example 526, 2,2-dimethylpropyl [(2R,6S,12Z,13aS,14aR,16aS)-6′-(difluoromethyl)-2′-methoxy-14a-{[(1-methylcyclopropyl)sulfonyl]carbamoyl}-5,16-dioxo-1,5,6,7,8,9,9′,10,10′,11,13a,14,14a,15,16,16a-hexadecahydrospiro[cyclopropa[e]pyrrolo[1,2-a][1,4]diazacyclopentadecine-2,8′-pyrano[2,3-c][1,5]naphthyridin]-6-yl]carbamate]",IC50,[1]; [4],0.005 nM
same,EC50,"[2]; HCV replicon, genotype 1b",2.59 nM
"COc1ccc2nc(C)c3c(c2c1)C(F)(F)C[C@]1(C[C@H]2C(=O)N[C@]4(C(=O)NS(=O)(=O)C5(C)CC5)C[C@H]4/C=C\CCCCC[C@H](NC(=O)O[C@@H](C)C(C)C)C(=O)N2C1)O3 [Example 264, (2S)-3-methylbutan-2-yl [(2S,6S,12Z,13aS,14aR,16aS)-1′,1′-difluoro-9′-methoxy-5′-methyl-14a-{[(1-methylcyclopropyl)sulfonyl]carbamoyl}-5,16-dioxo-1,1′,2′,5,6,7,8,9,10,11,13a,14,14a,15,16,16a-hexadecahydrospiro[cyclopropa[e]pyrrolo[1,2-a][1,4]diazacyclopentadecine-2,3′-pyrano[2,3-c]quinolin]-6-yl]carbamate]",IC50,[1]; [3],0.013 nM
same,EC50,"[2]; genotype 1b replicon, K+ salt",4.3 nM
"CC(C)COC(=O)N[C@H]1CCCCC/C=C\[C@@H]2C[C@@]2(C(=O)NS(=O)(=O)C2(C)CC2)NC(=O)[C@@H]2C[C@]3(CCc4c(c(C(F)(F)F)nc5ccc(OCCN6CCOCC6)cc45)O3)CN2C1=O [Example 471, 2-methylpropyl [(2R,6S,12Z,13aS,14aR,16aS)-14a-{[(1-methylcyclopropyl)sulfonyl]carbamoyl}-9′-[2-(morpholin-4-yl)ethoxy]-5,16-dioxo-5′-(trifluoromethyl)-1,1′,2′,5,6,7,8,9,10,11,13a,14,14a,15,16,16a-hexadecahydrospiro[cyclopropa[e]pyrrolo[1,2-a][1,4]diazacyclopentadecine-2,3′-pyrano[2,3-c]quinolin]-6-yl]carbamate]",IC50,"[1]; IC50 [gt-1b], NS3/4A protease TRF assay, genotype 1b enzyme 0.2 nM, HCl salt",0.021 nM
same,EC50,"[2]; HCV replicon, genotype 1b, HCl salt",3.06 nM
"Cc1nc2ccccc2c2c1O[C@]1(CC2)C[C@H]2C(=O)N[C@]3(C(=O)NS(=O)(=O)C4(C)CC4)C[C@H]3/C=C\CCCCC[C@H](NS(=O)(=O)C3CC3)C(=O)N2C1 [Example 230, (2R,6S,12Z,13aS,14aR,16aS)-6-[(cyclopropylsulfonyl)amino]-5′-methyl-N-[(1-methylcyclopropyl)sulfonyl]-5,16-dioxo-1,1′,2′,6,7,8,9,10,11,13a,14,15,16,16a-tetradecahydrospiro[cyclopropa[e]pyrrolo[1,2-a][1,4]diazacyclopentadecine-2,3′-pyrano[2,3-c]quinoline]-14a(5H)-carboxamide]",IC50,[1]; [5],0.265 nM
same,EC50,[2]; genotype 1b replicon,57.8 nM
"COc1ccc2nc(C(F)(F)F)c3c(c2c1)C=C[C@]1(CN2C(=O)[C@@H](NC(=O)OC(C)(C)C)CCCCC/C=C\[C@@H]4C[C@@]4(C(=O)NS(=O)(=O)C4(C)CC4)NC(=O)[C@@H]2C1C)O3 (stereo partly drawn) [Example 62, tert-Butyl ((2S,6S,13aS,14aR,16aS,Z)-9′-methoxy-1-methyl-14a-(((1-methylcyclopropyl)sulfonyl)carbamoyl)-5,16-dioxo-5′-(trifluoromethyl)-3,5,6,7,8,9,10,11,13a, 14,14a,15,16,16a-tetradecahydro-1H-spiro[cyclopropa[e]pyrrolo[1,2-a][1,4]diazacyclopentadecine-2,3′-pyrano[2,3-c]quinolin]-6-yl)carbamate]",IC50,[1]; [5],0.016 nM
same,EC50,[2]; genotype 1b replicon,0.26 nM
"Cc1nc2ccccc2c2c1O[C@]1(CC2)C[C@H]2C(=O)N[C@]3(C(=O)NS(=O)(=O)C4(C)CC4)C[C@H]3/C=C\CCCCC[C@H](Nc3ccccn3)C(=O)N2C1 [Example 353, (2R,6S,12Z,13aS,14aR,16aS)-5′-methyl-N-[(1-methylcyclopropyl)sulfonyl]-5,16-dioxo-6-(pyridin-2-ylamino)-1,1′,2′,6,7,8,9,10,11,13a,14,15,16,16a-tetradecahydrospiro[cyclopropa[e]pyrrolo[1,2-a][1,4]diazacyclopentadecine-2,3′-pyrano[2,3-c]quinoline]-14a(5R)-carboxamide]",IC50,[1]; [5],0.111 nM
same,EC50,[2]; genotype 1b replicon,39.5 nM
"Cc1nc2ccccc2c2c1O[C@]1(CC2)C[C@H]2C(=O)N[C@]3(C(=O)NS(=O)(=O)C4(C)CC4)C[C@H]3/C=C\CCCCC[C@H](N(CCC3CCCC3)CCC3CCCC3)C(=O)N2C1 [Example 162, (2R,6S,12Z,13aS,14aR,16aS)-6-[bis(2-cyclopentylethyl)amino]-5′-methyl-N-[(1-methylcyclopropyl)sulfonyl]-5,16-dioxo-1,1′,2′,6,7,8,9,10,11,13a,14,15,16,16a-tetradecahydrospiro[cyclopropa[e]pyrrolo[1,2-a][1,4]diazacyclopentadecine-2,3′-pyrano[2,3-c]quinoline]-14a(5H)-carboxamide]",IC50,[1]; [5],6.38 nM
same,EC50,[2]; genotype 1b replicon,72 nM
"COc1ccc2nc(C)c3c(c2n1)[C@H](F)C[C@]1(C[C@H]2C(=O)N[C@]4(C(=O)NS(=O)(=O)C5(C)CC5)C[C@H]4/C=C\CCCCC[C@H](NC(=O)OCC(C)(C)C)C(=O)N2C1)O3 [Example 377, 2,2-dimethylpropyl [(2S,6S,10′R,12Z,13aS,14aR,16aS)-10′-fluoro-2′-methoxy-6′-methyl-14a-{[(1-methylcyclopropyl)sulfonyl]carbamoyl}-5,16-dioxo-1,5,6,7,8,9,9′,10,10′,11,13a,14,14a,15,16,16a-hexadecahydrospiro[cyclopropa[e]pyrrolo[1,2-a][1,4]diazacyclopentadecine-2,8′-pyrano[2,3-c][1,5]naphthyridin]-6-yl]carbamate]",IC50,[1]; [4],0.018 nM
same,EC50,"[2]; HCV replicon, genotype 1b",2.52 nM
"Cc1nc2ccc(OC(F)(F)F)cc2c2c1O[C@]1(CC2)C[C@H]2C(=O)N[C@]3(C(=O)NS(=O)(=O)C4(C)CC4)C[C@H]3/C=C\CCCCC[C@H](NC(=O)OC3(C)CC3)C(=O)N2C1 [Example 122, 1-methylcyclopropyl [(2R,6S,12Z,13aS,14aR,16aS)-5′-methyl-14a-{[(1-methylcyclopropyl)sulfonyl]carbamoyl}-5,16-dioxo-9′-(trifluoromethoxy)-1,1′,2′,5,6,7,8,9,10,11,13a,14,14a,15,16,16a-hexadecahydrospiro[cyclopropa[e]pyrrolo[1,2-a][1,4]diazacyclopentadecine-2,3′-pyrano[2,3-c]quinolin]-6-yl]carbamate]",IC50,[1]; [5],0.019 nM
same,EC50,[2]; genotype 1b replicon,1.98 nM
"Cc1nc2ccccc2c2c1O[C@]1(CC2)C[C@H]2C(=O)N[C@]3(C(=O)NS(=O)(=O)C4(C)CC4)C[C@H]3/C=C\CCCCC[C@H](NC(=O)OCC(C)(C)C)C(=O)N2C1 [Example 130, 2,2-dimethylpropyl [(2R,6S,12Z,13aS,14aR,16aS)-5′-methyl-14a-{[(1-methylcyclopropyl)sulfonyl]carbamoyl}-5,16-dioxo-1,1′,2′,5,6,7,8,9,10,11,13a,14,14a,15,16,16a-hexadecahydrospiro[cyclopropa[e]pyrrolo[1,2-a][1,4]diazacyclopentadecine-2,3′-pyrano[2,3-c]quinolin]-6-yl]carbamate]",IC50,[1]; [5],0.01 nM
same,EC50,[2]; genotype 1b replicon,1.93 nM
"Cc1nc2cc(Cl)ccc2c2c1O[C@]1(CC2)C[C@H]2C(=O)N[C@]3(C(=O)NS(=O)(=O)C4(C)CC4)C[C@H]3/C=C\CCCCC[C@H](NC(=O)OC3CCC3)C(=O)N2C1 [Example 239, cyclobutyl [(2R,6S,12Z,13aS,14aR,16aS)-8′-chloro-5′-methyl-14a-{[(1-methylcyclopropyl)sulfonyl]carbamoyl}-5,16-dioxo-1,1′,2′,5,6,7,8,9,10,11,13a,14,14a,15,16,16a-hexadecahydrospiro[cyclopropa[e]pyrrolo[1,2-a][1,4]diazacyclopentadecine-2,3′-pyrano[2,3-c]quinolin]-6-yl]carbamate]",IC50,[1]; [5],0.068 nM
same,EC50,[2]; genotype 1b replicon,5.16 nM
"Cc1ccc2nc(C)c3c(c2c1)CC[C@]1(C[C@H]2C(=O)NC4(C(=O)NS(=O)(=O)C5(C)CC5)C[C@H]4/C=C\CCCCC[C@H](NC(=O)OC(C)(C)C)C(=O)N2C1)O3 (stereo partly drawn) [Example 42, tert-Butyl (1aR,3aS,3′R,9S,16aS,Z)-5′,9′-dimethyl-1a-(1-methylcyclopropylsulfonylcarbamoyl)-3,8-dioxo-1a,1′,2,2′,3,3a,4,6,8,9,10,11,12,13,14,16a-hexadecahydro-1H -spiro[cyclopropa[e]pyrrolo[1,2-a][1,4]diazacyclopentadecine-5,3′-pyrano[2,3-c]quinoline]-9-ylcarbamate]",IC50,[1]; [5],0.008 nM
same,EC50,[2]; genotype 1b replicon,2.59 nM
